Measured values reported in ChEMBL document CHEMBL1201862, “PubChem BioAssay data set” (2004).
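Following 48 hours of exposure in 96-well plates, responses at five concentrations were used to interpolate endpoints linearly. Here, GI50 denotes the concentration required for 50% inhibition of growth.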 Active and inactive are the calls of the source. Cut-off read from the data, not from the text of the source: active = GI50 up to about 1.1 µM and inactive = higher.

Experiments:
Assay in all cases: NCI tumour cell line growth inhibition, 48 h
[1] = tested on: IGROV-1
[2] = tested on: SK-MEL-28
[3] = tested on: OVCAR-8
[4] = tested on: NCI-H226
[5] = tested on: DU-145
[6] = tested on: SF-268
[7] = tested on: UACC-257
[8] = tested on: SK-MEL-2
[9] = tested on: K562
[10] = tested on: HOP-62
[11] = tested on: Hs-578T
[12] = tested on: MOLT-4
[13] = tested on: HCT-15
[14] = tested on: UO-31
[15] = tested on: SW-620
[16] = tested on: RPMI-8226
[17] = tested on: OVCAR-5
[18] = tested on: SNB-19
[19] = tested on: MDA-N

| Compound | GI50 [1] | GI50 [2] | GI50 [3] | GI50 [4] | GI50 [5] | GI50 [6] | GI50 [7] | GI50 [8] | GI50 [9] | GI50 [10] | GI50 [11] | GI50 [12] | GI50 [13] | GI50 [14] | GI50 [15] | GI50 [16] | GI50 [17] | GI50 [18] | GI50 [19] |
| --- | --- | --- | --- | --- | --- | --- | --- | --- | --- | --- | --- | --- | --- | --- | --- | --- | --- | --- | --- |
| COc1ccc(OC)c([N+](=O)[O-])c1-c1nc2sc(C)cn2c1/C=N/N=C(N)N | 14.5 µM (inactive) | 21.4 µM (inactive) | 25.7 µM (inactive) | 36.1 µM (inactive) | 30.3 µM (inactive) | 27.6 µM (inactive) | 18 µM (inactive) | 21.5 µM (inactive) | 2.49 µM (inactive) | 43.5 µM (inactive) | 31 µM (inactive) | < 0.01 µM (active) | > 100 µM | > 100 µM (inactive) | 29.9 µM (inactive) | 37.8 µM (inactive) | 51.4 µM (inactive) |  |  |
| O=[N+]([O-])C(C(Cl)=C(Cl)Cl)=C(n1cncn1)n1cncn1 | 16.6 µM (inactive) | 32.6 µM (inactive) | 19.2 µM (inactive) | > 100 µM (inactive) | 16.5 µM (inactive) | 17.1 µM (inactive) | 31.3 µM (inactive) | > 100 µM (inactive) |  | > 75.2 µM (inactive) | 27 µM (inactive) | > 33 µM (inactive) | 17.8 µM | 18.5 µM (inactive) | 18.8 µM (inactive) | 17.1 µM (inactive) | 15.6 µM (inactive) | > 100 µM (inactive) |  |
| OCCN(C1=NCCN1)/[N+](=C/c1ccc(Cl)cc1)[CH-]c1ccc(Cl)cc1 | > 100 µM (inactive) | > 100 µM (inactive) | > 100 µM (inactive) | > 100 µM (inactive) |  | > 100 µM (inactive) | > 100 µM (inactive) | 27.1 µM (inactive) | 41.7 µM (inactive) | > 100 µM (inactive) | > 100 µM (inactive) | 26.5 µM (inactive) | 61.8 µM | > 100 µM (inactive) | > 100 µM (inactive) |  | > 100 µM (inactive) | > 100 µM (inactive) | > 100 µM (inactive) |
| Cc1cn(C(Cc2ccccc2)OCCO)c(=O)[nH]c1=O (stereo unspecified) | > 100 µM (inactive) | > 100 µM (inactive) | > 100 µM (inactive) | > 100 µM (inactive) | > 100 µM (inactive) |  | > 100 µM (inactive) | > 100 µM (inactive) | > 100 µM (inactive) | > 100 µM (inactive) |  | > 100 µM (inactive) | > 100 µM | > 100 µM (inactive) | > 100 µM (inactive) | > 100 µM (inactive) | > 100 µM (inactive) | > 100 µM (inactive) | > 100 µM (inactive) |
| CC[C@]1(Cc2ccc(OC)c(OC)c2)C=[N+]([O-])O[C@H](OC2CCCCC2c2ccccc2)[C@@H]1OC(C)=O (stereo partly specified) | 39.4 µM (inactive) | 61.7 µM (inactive) | 50.6 µM (inactive) | 32.5 µM (inactive) | 49 µM (inactive) |  | 67.3 µM (inactive) | 46.1 µM (inactive) | 30.8 µM (inactive) | 64.6 µM (inactive) |  | 17.3 µM (inactive) | 37.2 µM | 41.2 µM (inactive) | 40.2 µM (inactive) | 21.1 µM (inactive) | > 100 µM (inactive) | 92.5 µM (inactive) | 53.5 µM (inactive) |
| Cc1[nH]c2ccccc2c1C1=CC(=O)N(c2ccccc2)C1=O | 32.1 µM (inactive) | 6.46 µM (inactive) | 14.8 µM (inactive) | 19 µM (inactive) | 4.74 µM (inactive) | 15.8 µM (inactive) | 13.1 µM (inactive) | 13.6 µM (inactive) | 6.37 µM (inactive) | 7.98 µM (inactive) | 8.22 µM (inactive) | 36.2 µM (inactive) | 7.76 µM | 19 µM (inactive) | 5.38 µM (inactive) | 11.3 µM (inactive) | 23.1 µM (inactive) | 22.1 µM (inactive) |  |
| O=C1CSc2nc3ccccc3n2/C=N\N1 |  | > 100 µM (inactive) | > 100 µM (inactive) | > 100 µM (inactive) | > 100 µM (inactive) | > 100 µM (inactive) | > 100 µM (inactive) | > 100 µM (inactive) | > 100 µM (inactive) |  |  | > 100 µM (inactive) | > 100 µM | > 100 µM (inactive) | > 100 µM (inactive) | > 100 µM (inactive) | > 100 µM (inactive) | > 100 µM (inactive) | > 100 µM (inactive) |
| CCOC(=O)NNC(=O)C1CSC(c2ccccc2)N1C(C)=O (stereo unspecified) | > 100 µM (inactive) |  | > 100 µM (inactive) | > 100 µM (inactive) | > 100 µM (inactive) | > 100 µM (inactive) | > 100 µM (inactive) | > 100 µM (inactive) | > 100 µM (inactive) | > 100 µM (inactive) | > 100 µM (inactive) | > 100 µM (inactive) | > 100 µM | > 100 µM (inactive) | > 100 µM (inactive) | > 100 µM (inactive) | > 100 µM (inactive) | > 100 µM (inactive) |  |
